Laboratory results taken from patent publication US4076705A, “Dipeptide derivatives and their production” (Shionogi & Co., Ltd., priority 1974, dated 1978).

Legend:
Assay type in all cases: in vivo
DS male mice [1] = assay: Taming activity; settings: for Taming activity ED50: given 60 minutes prior, inhibition of fighting responses to 5 Hz square wave pulse, 5 pairs; for times more potent than diazepam, taming activity: versus diazepam (Compound No. 5)
Procedure: This test was measured on DS male mice. […] These pairs of mice were selected in the morning and used for drug test in the afternoon. The test compound was administered to both mice of the pairs 60 minutes prior to the experiment. Results were obtained as the mean percentage of inhibition of fighting responses in a group of 5 pairs and shown by ED50 [Tedeschi, et al.: J. Pharmacol Exp. Thev., 125, 28-34 (1959) ].

DS male mice [2] = assay: Anti-pentylenetetrazol activity; settings: for Anti-pentylenetetrazol activity, ED50: oral, 60 minutes prior to 125 mg/kg s.c. pentylenetetrazol, complete protection against mortality, observed two hours; for times more potent than diazepam, anti-pentylenetetrazol activity: versus diazepam (Compound No. 5)
Description: 1. Anti-pentylenetetrazol activity
The convulsions were disregarded.

DS male mice [3] = assay: Rotarod performance activity; settings: fall from rod (five rotations per minute) within less than 2 minutes
Procedure: 3. Rotarod performance activity
This test was measured on DS male mice. The mouse was put on a scraped rod of wood, 3 cm in diameter, turning at the rate of five rotations per minute. The mice that could remain on the rod for three or more minutes in successive trials were selected and placed in a group of 10 mice for each dose. If the mouse fell down from the rod within less than 2 minutes, the test compound was considered to be effective. Results were shown by ED50 [Dunham, et al.: J. Am. Pharm. Assoc., 46, 208 (1959)].

[4] = versus chlordiazepoxide (Compound No. 4)

SMILES | times more potent than chlordiazepoxide, taming activity (DS male mice [1]; [4]) [times] | Anti-pentylenetetrazol activity, ED50 (DS male mice [2]) [mg/kg] | times more potent than chlordiazepoxide, anti-pentylenetetrazol activity (DS male mice [2]; [4]) [times] | Taming activity ED50 (DS male mice [1]) [mg/kg] | times more potent than diazepam, taming activity (DS male mice [1]) [times] | times more potent than diazepam, anti-pentylenetetrazol activity (DS male mice [2]) [times] | Rotarod performance ED50 (DS male mice [3]) [mg/kg]
CN(C(=O)CNC(=O)CN)c1ccc(Cl)cc1C(=O)c1ccccc1 [Compound No. 1, 2-benzoyl-4-chloro-N-methyl-N^α -glycyl-glycinanilide] | 2 to 3 | 1.0 | 2 to 3 | – | – | – | –
CN(C(=O)CNC(=O)CN)c1ccc(Cl)cc1C(=O)c1ccccc1Cl.O [Compound No. 2, 2-o-chlorobenzoyl-4-chloro-N-methyl-N^α -glycyl-glycinanilide hydrate] | – | 0.58 | – | 3.0 | 2 to 4 | 2 to 4 | –
CN(C(=O)CNC(=O)CN)c1ccc(Cl)cc1C(=O)c1ccccc1F.Cl [Compound No. 3, 2-o-fluorobenzoyl-4-chloro-N-methyl-N^α -glycyl-glycinanilide hydrochloride] | – | 0.33 | – | 1.6 | 2 to 4 | 2 to 4 | 17.0
CNC1=Nc2ccc(Cl)cc2C(c2ccccc2)=[N+]([O-])C1 [Compound No. 4, Chlordiazepoxide, reference compound] | – | – | – | – | – | – | 50.0
